Data from US20090197859A1 (Pfizer Inc., priority 2008, published 2009).
Where a name gives a salt, the structure may show the parent alone.

Legend:
[1] = target: T1, cloned human 5-HT6 receptor (Homo sapiens, UniProt P50406); assay: 5-HT6 Receptor Binding Assay ([3H]-LSD radioligand, SPA); settings: for inhibition at 1 µM: read-out: 5HT6 % inh @ 1 uM
T1 construct: host or cells: HeLa cells, G-418 selection, membrane preparation
Method: 5-HT6 Receptor Binding Assay
Hela cells containing the cloned human 5-HT6 receptor were acquired from Dr. David R. Sibley's laboratory in National Institute of Health (see Sibley, D. R., J. Neurochemistry, 66, 47-56, 1996). Cells were grown in high glucose Dulbecco's modified Eagle's medium, supplemented with L-glutamine, 0.5% sodium pyruvate, 0.3% penicillin-streptomycin, 0.025% G-418 and 5% Gibco fetal bovine serum and then were harvested, when confluent, in cold phosphate buffered saline.
Harvested intact cells were washed once in cold phosphate-buffered saline. The cells were pelleted and resuspended in 100 ml of cold 50 mM Tris, 5 mM EDTA and 5 mM EGTA, pH 7.4. Homogenization was with a Vir Tishear generator, 4 cycles for 30 seconds each at setting 50. The homogenized cells were centrifuged at […] for 10 minutes and the supernatant was removed. The pellet was resuspended in 100 ml of the above buffer and rehomogenized for 2 cycles. The rehomogenized cells were then centrifuged at […] for 10 minutes and the supernatant was removed. The combined supernatant (200 ml) was centrifuged at 23,000 RPM (80,000×g) for 1 hour in a Beckman Rotor (42.1 Ti). The membrane pellet was resuspended in […] of assay buffer containing HEPES 20 mM, MgCl2 10 mM, NaCl 150 mM, EDTA 1 mM, pH 7.4 and stored frozen in aliqouts at −70° C.
The radioligand binding assay used [^3H]-lysergic acid diethylamide (LSD). The assay was carried out in Wallac 96-well sample plates by the addition of 11 μl of the test sample at the appropriate dilution (the assay employed 11 serial concentrations of samples run in duplicate), 11 μl of radioligand, and 178 μl of a washed mixture of WGA-coated SPA beads and membranes in binding buffer. The plates were shaken for about 5 minutes and then incubated at room temperature for 1 hour. The plates were then loaded into counting cassettes and counted in a Wallac MicroBeta Trilux scintillation counter.
Binding Constant Determination may be obtained by performing serial dilutions, e.g., eleven dilutions, of test compounds into assay plates using the PE/Cetus Pro/Pette pipetter. These dilutions are followed by radioligand and the bead-membrane mixture prepared as described above. After obtaining the specifically bound cpm, the data are fit to a one-site binding model using GraphPad Prism ver. 2.0. Estimated IC50 values are converted to Ki values using the Cheng-Prusoff equation (Cheng, Y. C. et al., Biochem. Pharmacol., 22, 3099-108, 1973).

T1 sequence (P50406 whole entry): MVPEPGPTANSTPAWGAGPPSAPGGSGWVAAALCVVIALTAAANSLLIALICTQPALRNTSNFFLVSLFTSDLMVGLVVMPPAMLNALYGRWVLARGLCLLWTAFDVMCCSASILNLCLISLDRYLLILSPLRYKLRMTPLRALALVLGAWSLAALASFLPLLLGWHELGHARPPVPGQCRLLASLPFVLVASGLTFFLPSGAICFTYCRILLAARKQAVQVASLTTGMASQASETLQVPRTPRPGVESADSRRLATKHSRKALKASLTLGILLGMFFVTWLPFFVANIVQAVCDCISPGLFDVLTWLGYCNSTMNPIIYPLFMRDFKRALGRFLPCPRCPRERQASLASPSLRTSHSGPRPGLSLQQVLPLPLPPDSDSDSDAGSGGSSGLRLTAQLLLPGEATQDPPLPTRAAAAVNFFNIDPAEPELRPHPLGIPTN

| SMILES | melting point | inhibition at 1 µM [1] | inhibition at 0.3 µM ([1]; 0.3 μM (stated in cell), read-out: 5HT6 % inh @ 0.3 μM) |
| --- | --- | --- | --- |
| CN1CCC(c2cccc(C(=O)N3CCC(Oc4cccc(F)c4)CC3)n2)C1 (stereo not shown) (as salt: hydrochloride) [Example 16, [4-(3-Fluoro-phenoxy)-piperidin-1-yl]-[6-(1-methyl-pyrrolidin-3-yl)-pyridin-2-yl]-methanone] | 85 to 86 °C | – | – |
| CN1CCN(c2cccc(C(=O)N3CC=C(c4ccccc4F)CC3)n2)CC1 (as salt: hydrochloride) [Example 21, [4-(2-Fluoro-phenyl)-3,6-dihydro-2H-pyridin-1-yl]-[6-(4-methyl-piperazin-1-yl)-pyridin-2-yl]-methanone] | 176.7 to 177.2 °C | – | – |
| Cc1cccc(F)c1C1CCN(C(=O)c2cccc(N3CCN(C)CC3)n2)CC1 (as salt: hydrochloride) [Example 23, [4-(2-Fluoro-6-methyl-phenyl)-piperidin-1-yl]-[6-(4-methyl-piperazin-1-yl)-pyridin-2-yl]-methanone] | 163 to 164.7 °C | – | – |
| Cc1ccccc1C1CCCCN1C(=O)c1cccc(N2CCNCC2)n1 (stereo not shown) (as salt: hydrochloride) [Example 26, (6-Piperazin-1-yl-pyridin-2-yl)-(2-o-tolyl-piperidin-1-yl)-methanone] | 105.6 to 106 °C | – | – |
| O=C(c1cccc(N2CCCNCC2)n1)N1CC[C@H](Oc2ccccc2F)C1 (as salt: hydrochloride) [Example 30, (6-[1,4]Diazepan-1-yl-pyridin-2-yl)-[(S)-3-(2-fluoro-phenoxy)-pyrrolidin-1-yl]-methanone] | 75 to 77 °C | – | – |
| CN1CCCN(c2cccc(C(=O)N3CC[C@@H](Oc4ccccc4F)C3)n2)CC1 (as salt: hydrochloride) [Example 46, [(R)-3-(2-Fluoro-phenoxy)-pyrrolidin-1-yl]-[6-(4-methyl-[1,4]diazepan-1-yl)-pyridin-2-yl]-methanone] | 106 to 108 °C | – | – |
| O=S(=O)(c1cccc(N2CCNCC2)n1)N1CCC(c2ccccc2F)CC1 (as salt: hydrochloride) [Example 51, 1-{6-[4-(2-Fluoro-phenyl)-piperidine-1-sulfonyl]-pyridin-2-yl}-piperazine] | 211 to 212.2 °C | – | – |
| Cc1ccccc1O[C@@H]1CCN(C(=O)c2cccc(N3CCCN(C)CC3)n2)C1 (as salt: hydrochloride) [Example 53, [6-(4-Methyl-[1,4]diazepan-1-yl)-pyridin-2-yl]-((R)-3-o-tolyloxy-pyrrolidin-1-yl)-methanone] | 94 to 96 °C | – | – |
| Cc1ccccc1C1CCN(S(=O)(=O)c2cccc(N3CCN(C)CC3)n2)CC1 (as salt: hydrochloride) [Example 78, 1-Methyl-4-[6-(4-o-tolyl-piperidine-1-sulfonyl)-pyridin-2-yl]-piperazine] | 203 to 204.5 °C | – | – |
| Cc1ccccc1OC1CCN(C(=O)c2cccc(C3CCN(C)CC3)n2)CC1 (as salt: hydrochloride) [Example 95, (1′-Methyl-1′,2′,3′,4′,5′,6′-hexahydro-[2,4′]bipyridinyl-6-yl)-(4-o-tolyloxy-piperidin-1-yl)-methanone] | 118 to 120 °C | – | – |
| Cc1cccc(OC2CCN(C(=O)c3cccc(C4CCN(C)C4)n3)CC2)c1 (stereo not shown) [Example 17, [6-(1-Methyl-pyrrolidin-3-yl)-pyridin-2-yl]-(4-m-tolyloxy-piperidin-1-yl)-methanone] | 89 to 90 °C | 96.4% | – |
| Cc1cccc(O[C@@H]2CCN(C(=O)c3cccc(N4CCCN(C)CC4)n3)C2)c1 [Example 19, [6-(4-Methyl-[1,4]diazepan-1-yl)-pryidin-2-yl]-((R)-3-m-tolyloxy-pyrrolidin-1-yl)-methanone] | 82 to 84 °C | 78.5% | – |
| CN1CCN(c2cccc(C(=O)N3CCC(c4ccccc4F)CC3)n2)CC1 [Example 20, [4-(2-Fluoro-phenyl)-piperidin-1-yl]-[6-(4-methyl-piperazin-1-yl)-pyridin-2-yl]-methanone] | 111 to 113 °C | 101% | – |
| Cc1ccccc1C1=CCN(C(=O)c2cccc(N3CCN(C)CC3)n2)CC1 [Example 24, [6-(4-Methyl-piperazin-1-yl)-pyridin-2-yl]-(4-o-tolyl-3,6-dihydro-2H-pyridin-1-yl)-methanone] | 160.7 to 162.3 °C | – | 92% |
| O=C(c1cccc(N2CCCNCC2)n1)N1CC[C@H](Oc2ccc(F)cc2)C1 [Example 25, (6-[1,4]Diazepan-1-yl-pyridin-2-yl)-[(S)-3-(4-fluoro-phenoxy)-pyrrolidin-1-yl]-methanone] | 72 to 74 °C | 75.4% | – |
| O=C(c1cccc(N2CCNCC2)n1)N1CCCCC1c1cccc(F)c1 (stereo not shown) [Example 27, [2-(3-Fluoro-phenyl)-piperidin-1-yl]-(6-piperazin-1-yl-pyridin-2-yl)-methanone] | 156.8 to 157 °C | 94.5% | – |
| Cc1cccc(C2CCCCN2C(=O)c2cccc(N3CCNCC3)n2)c1 (stereo not shown) [Example 28, (6-Piperazin-1-yl-pyridin-2-yl)-(2-m-tolyl-piperidin-1-yl)-methanone] | 154.1 to 155.5 °C | 94.6% | – |
| O=C(c1cccc(N2CCNCC2)n1)N1CCCCC1c1ccc(F)cc1 (stereo not shown) [Example 29, [2-(4-Fluoro-phenyl)-piperidin-1-yl]-(6-piperazin-1-yl-pyridin-2-yl)-methanone] | 102 to 103.2 °C | 75.1% | – |
| O=C(c1cccc(N2CCCNCC2)n1)N1CCCCC1c1ccccc1F (stereo not shown) [Example 31, (6-[1,4]Diazepan-1-yl-pyridin-2-yl)-[2-(2-fluoro-phenyl)-piperidin-1-yl]-methanone] | 183.4 to 184 °C | 94.5% | – |
| Cc1ccccc1C1CCCCN1C(=O)c1cccc(N2CCCNCC2)n1 (stereo not shown) [Example 33, (6-[1,4]Diazepan-1-yl-pyridin-2-yl)-(2-o-tolyl-piperidin-1-yl)-methanone] | 123.3 to 124 °C | 84.6% | – |
| Cc1cccc(C2CCCCN2C(=O)c2cccc(N3CCCNCC3)n2)c1 (stereo not shown) [Example 34, (6-[1,4]Diazepan-1-yl-pyridin-2-yl)-(2-m-tolyl-piperidin-1-yl)-methanone] | 138.5 to 139 °C | 95.3% | – |
| Cc1ccccc1O[C@H]1CCN(C(=O)c2cccc(N3CCCNCC3)n2)C1 [Example 36, (6-[1,4]Diazepan-1-yl-pyridin-2-yl)-((S)-3-o-tolyloxy-pyrrolidin-1-yl)-methanone] | 140 to 142 °C | 93.5% | – |
| Cc1ccc(C2CCCCN2C(=O)c2cccc(N3CCCNCC3)n2)cc1 (stereo not shown) [Example 37, (6-[1,4]Diazepan-1-yl-pyridin-2-yl)-(2-p-tolyl-piperidin-1-yl)-methanone] | 147.9 to 148.5 °C | 71.6% | – |
| O=C(c1cccc(N2CCCNCC2)n1)N1CCC[C@H](Oc2cccc(F)c2)C1 [Example 38, (6-[1,4]Diazepan-1-yl-pyridin-2-yl)-[(S)-3-(3-fluoro-phenoxy)-piperidin-1-yl]-methanone] | 96.9 to 97.5 °C | 99.4% | – |
| O=C(c1cccc(N2CCCNCC2)n1)N1CCC[C@H](Oc2ccc(F)cc2)C1 [Example 39, (6-[1,4]Diazepan-1-yl-pyridin-2-yl)-[(S)-3-(4-fluoro-phenoxy)-piperidin-1-yl]-methanone] | 107.9 to 109 °C | 82% | – |
| O=C(c1cccc(N2CCCNCC2)n1)N1CCC[C@H](Oc2ccccc2F)C1 [Example 40, (6-[1,4]Diazepan-1-yl-pyridin-2-yl)-[(S)-3-(2-fluoro-phenoxy)-piperidin-1-yl]-methanone] | 158 to 159 °C | 100% | – |
| Cc1ccc(O[C@H]2CCCN(C(=O)c3cccc(N4CCCNCC4)n3)C2)cc1 [Example 41, (6-[1,4]Diazepan-1-yl-pyridin-2-yl)-((S)-3-p-tolyloxy-piperidin-1-yl)-methanone] | 157.6 to 158.2 °C | 94.7% | – |
| Cc1cccc(O[C@H]2CCN(C(=O)c3cccc(N4CCCNCC4)n3)C2)c1 [Example 42, (6-[1,4]Diazepan-1-yl-pyridin-2-yl)-((S)-3-m-tolyloxy-pyrrolidin-1-yl)-methanone] | 116 to 118 °C | 99.4% | – |
